Reference: patent publication US20240299318A1, “AMISELIMOD FOR PREVENTING, TREATING OR AMELIORATING ULCERATIVE COLITIS” (Bausch Health Ireland Limited, priority 2021, published 2024)
Like-named read-outs stand apart in the source and are kept apart here. Blank lines part the entries; values can stand above or below the compound they belong to.

Experiments:
S1P3 receptor = S1P3 receptor (Homo sapiens, UniProt Q99500); test: agonistic activity at S1P3 receptor; type: biochemical
human S1P1 receptor = human S1P1 receptor (Homo sapiens, UniProt P21453); test: agonistic activity at human S1P1 receptor; type: biochemical; details: compared with S1P4 and S1P5
human S1P1 receptor, sequence (P21453 whole entry): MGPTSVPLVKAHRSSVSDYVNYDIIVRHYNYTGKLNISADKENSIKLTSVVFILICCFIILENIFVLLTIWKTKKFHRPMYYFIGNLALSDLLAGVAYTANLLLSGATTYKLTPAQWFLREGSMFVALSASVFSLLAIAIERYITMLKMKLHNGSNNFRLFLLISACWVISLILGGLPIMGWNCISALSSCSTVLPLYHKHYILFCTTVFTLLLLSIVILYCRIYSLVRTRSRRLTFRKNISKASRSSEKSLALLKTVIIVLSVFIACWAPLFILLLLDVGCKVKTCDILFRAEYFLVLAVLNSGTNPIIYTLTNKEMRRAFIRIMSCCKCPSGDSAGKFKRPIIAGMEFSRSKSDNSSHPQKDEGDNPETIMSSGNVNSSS

human S1Ps receptor = human S1Ps receptor (Homo sapiens, UniProt Q9H228); test: agonistic activity at human S1Ps receptor; type: biochemical; details: less potent than at human S1P1 receptor
human S1Ps receptor, sequence (Q9H228 whole entry): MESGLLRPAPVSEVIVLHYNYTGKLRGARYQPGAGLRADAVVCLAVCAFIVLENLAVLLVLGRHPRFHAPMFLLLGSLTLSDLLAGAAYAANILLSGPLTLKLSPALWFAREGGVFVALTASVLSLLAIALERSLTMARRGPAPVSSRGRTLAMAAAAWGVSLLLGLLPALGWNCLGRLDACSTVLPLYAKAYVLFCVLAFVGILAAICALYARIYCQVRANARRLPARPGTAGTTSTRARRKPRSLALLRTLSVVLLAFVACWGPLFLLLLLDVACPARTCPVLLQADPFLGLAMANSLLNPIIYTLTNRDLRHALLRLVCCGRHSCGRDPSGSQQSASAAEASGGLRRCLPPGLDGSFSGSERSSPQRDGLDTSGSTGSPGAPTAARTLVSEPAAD

human S1P4 receptor = biological target: T1, human S1P4 receptor (Homo sapiens, UniProt O95977); test: agonistic activity at human S1P4 receptor; type: biochemical; details: less potent than at human S1P1 receptor
T1 sequence (O95977 1-384): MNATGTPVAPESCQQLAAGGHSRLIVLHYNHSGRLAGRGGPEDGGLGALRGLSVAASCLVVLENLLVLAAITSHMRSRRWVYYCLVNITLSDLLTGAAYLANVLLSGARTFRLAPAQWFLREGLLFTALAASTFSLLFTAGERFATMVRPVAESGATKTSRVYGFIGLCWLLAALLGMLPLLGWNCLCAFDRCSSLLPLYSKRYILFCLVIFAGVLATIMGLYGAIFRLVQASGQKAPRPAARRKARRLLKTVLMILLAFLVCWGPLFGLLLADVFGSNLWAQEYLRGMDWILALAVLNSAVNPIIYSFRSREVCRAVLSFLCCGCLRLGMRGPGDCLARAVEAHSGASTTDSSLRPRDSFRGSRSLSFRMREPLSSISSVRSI

human S1P2 receptor = human S1P2 receptor (Homo sapiens, UniProt O95136); test: agonistic activity at human S1P2 receptor; type: biochemical
human S1P2 receptor, sequence (O95136 whole entry): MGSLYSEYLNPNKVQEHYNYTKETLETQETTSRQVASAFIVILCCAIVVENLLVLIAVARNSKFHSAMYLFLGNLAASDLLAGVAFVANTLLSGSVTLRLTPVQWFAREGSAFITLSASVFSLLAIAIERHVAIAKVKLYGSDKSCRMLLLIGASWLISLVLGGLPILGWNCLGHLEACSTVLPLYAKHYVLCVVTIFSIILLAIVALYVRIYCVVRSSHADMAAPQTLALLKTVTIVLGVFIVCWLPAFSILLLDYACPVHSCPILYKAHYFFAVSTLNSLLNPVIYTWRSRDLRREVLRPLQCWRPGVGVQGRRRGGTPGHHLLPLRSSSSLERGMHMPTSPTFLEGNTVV

[1] = half-life and accumulation to steady state; type: in vivo, humans; details: for half-life: in humans; for period of accumulation to steady state: inferred from long half-life
[2] = study of amiselimod 0.4 mg QD: steady state, AUC, Cmax, lymphocyte counts; type: in vivo; details: for increase of steady-state AUC on day 13 compared with day 1 / increase of steady-state Cmax on day 13 compared with day 1: amiselimod 0.4 mg QD
Description: Amiselimod has a half-life of about 400 hours. For example, amiselimod has a terminal half-life that is about 20 times longer than etrasimod, which has a half-life of about 17-20 hours. In a study, a daily dose of amiselimod achieved a therapeutic steady state after 14 days of 0.4 mg QD administration. On day 13, the steady-state AUC and Cmax for amiselimod 0.4 mg QD increased by 10-fold for amiselimod and by 4-fold for amiselimod-P compared with day 1. This increase in AUC and Cmax correlated with gradual decrease in absolute lymphocyte counts. The reduction in lymphocyte counts was maintained after amiselimod discontinuation, indicating a persistent therapeutic amiselimod AUC owing in part to the associated half-life. Accordingly, amiselimod may be administered in accordance with the methods described herein less frequently than once daily to achieve the desired treatment such, as for example, maintenance of Ulcerative Colitis. In some embodiments, the second dose may be administered during the second administration period (e.g., the maintenance dose phase) QD, BID, TID, or QID every other day during the second administration period or every two days during the second administration period or every three days during the second administration period or every four days during the second administration period or every five days during the second administration period or every six days during the second administration period or every seven days during the second administration period.

healthy subjects = test: Phase 1 randomized, double-blind, placebo-controlled safety study, upwardly titrated amiselimod; type: in vivo, human; details: for discontinuation rate: safety population, 95 subjects per group
Description: The safety of amiselimod in healthy subjects was evaluated in a Phase 1 randomized, double-blind, placebo-controlled study where the dose of amiselimod was upwardly titrated.
A randomized, double-blind, multiple-dose, placebo-controlled, parallel study with a nested crossover design evaluated the safety and tolerability profile of amiselimod. Healthy adults were randomized in a 2:1:1 ratio during a 28-day treatment period accordingly: a single dose of placebo followed by oral amiselimod (upwardly titrated in doses ranging from 0.4 to 1.6 mg to achieve steady-state concentrations); a single dose of oral moxifloxacin 400 mg followed by placebo; or placebo followed by a single dose of moxifloxacin 400 mg (for the safety analysis, moxifloxacin arms were combined). The safety population included all subjects who received at least one dose of treatment. Adverse events (AE) and serious AEs were collected. Treatment-emergent AEs were defined as an AE that was starting or worsening at the time of or after study drug administration. Changes in clinical laboratory parameters (including lymphocyte counts), physical examinations, vital signs, and electrocardiogram parameters (including heart rate, PR, QRS, and QT intervals) were recorded. Subjects were permitted to withdraw if lymphocyte counts were ≤0.2×10^9/L.

heart rate = test: negative chronotropic activity; details: in vivo
Text: Chronotropic effects in the heart can include changes in the heart rate or rhythm. Negative chronotropic effects are those that result in a decreased heart rate and include bradyarrhythmia (bradycardia).

[3] = system: peripheral blood lymphocytes (PBLs); test: reduction of peripheral blood lymphocytes after oral dose, cynomolgus monkeys; type: in vivo; details: oral dose of 0.1 mg/kg or higher
[4] = system: colitis in the adoptive transfer of CD4+CD45RBhigh T cells; test: colitis in the adoptive transfer of CD4+CD45RBhigh T cells in SCID mice; type: in vivo; details: oral administration
[5] = system: peripheral blood lymphocytes (PBLs); test: reduction of peripheral blood lymphocytes after oral dose, mice; type: in vivo; details: oral dose of 0.1 mg/kg or higher
[6] = system: peripheral blood lymphocytes (PBLs); test: reduction of peripheral blood lymphocytes after oral dose, rats; type: in vivo; details: oral dose of 0.1 mg/kg or higher
[7] = comparator etrasimod; cited from earlier work

S1P3 receptor, sequence (Q99500 whole entry): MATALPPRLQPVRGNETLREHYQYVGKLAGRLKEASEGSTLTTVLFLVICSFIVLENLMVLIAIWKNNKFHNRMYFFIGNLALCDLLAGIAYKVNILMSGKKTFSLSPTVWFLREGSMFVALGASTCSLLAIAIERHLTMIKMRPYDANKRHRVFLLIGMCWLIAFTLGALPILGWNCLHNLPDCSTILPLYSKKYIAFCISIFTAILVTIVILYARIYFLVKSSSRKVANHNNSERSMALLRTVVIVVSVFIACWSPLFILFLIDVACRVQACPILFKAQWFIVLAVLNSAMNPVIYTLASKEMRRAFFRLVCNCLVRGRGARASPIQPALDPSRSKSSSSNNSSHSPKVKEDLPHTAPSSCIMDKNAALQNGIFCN

agonistic activity at S1P3 receptor (S1P3 receptor): no agonistic activity
agonistic activity at human S1Ps receptor (human S1Ps receptor): agonistic activity
agonistic activity at human S1P4 receptor (human S1P4 receptor): agonistic activity
agonistic activity at human S1P2 receptor (human S1P2 receptor): no agonistic activity
Structure (SMILES): CCCCCCCOc1ccc(CCC(N)(CO)COP(=O)(O)O)cc1C(F)(F)F (stereo in doubt) [(S)-MT-1303-P]
agonistic activity at human S1P1 receptor (human S1P1 receptor): more potently than at human S1P4 receptor and human S1Ps receptor

half-life [1]: approximately 400 hours
period of accumulation to steady state [1]: about 10 weeks
increase of steady-state AUC on day 13 compared with day 1 [2]: 4 fold
increase of steady-state Cmax on day 13 compared with day 1 [2]: 4 fold
Structure (SMILES): CCCCCCCOc1ccc(CC[C@@](N)(CO)COP(=O)(O)O)cc1C(F)(F)F [MT-1303-P]

Structure (SMILES): COc1c(N2C[C@@H]3CCCN[C@@H]3C2)c(F)cc2c(=O)c(C(=O)O)cn(C3CC3)c12 [Moxifloxacin, moxifloxacin, reference compound]
Constipation (healthy subjects; Days 1-26, n = 95): 11 (12) n (%)
Dizziness (healthy subjects; Days 1-26, n = 95): 1 (1) n (%)
Headache (healthy subjects; Days 1-26, n = 95): 12 (13) n (%)
Number of subjects with an adverse event (healthy subjects; Days 1-26, n = 95): 49 (52) n (%)
Upper respiratory tract infection (healthy subjects; Days 1-26, n = 95): 1 (1) n (%)
White blood cell count decreased (healthy subjects; Days 1-26, n = 95): 0 n (%)
Constipation (healthy subjects; Days 27+, n = 46): 0 n (%)
Dizziness (healthy subjects; Days 27+, n = 46): 1 (2) n (%)
Headache (healthy subjects; Days 27+, n = 46): 0 n (%)
Number of subjects with an adverse event (healthy subjects; Days 27+, n = 46): 7 (15) n (%)
Upper respiratory tract infection (healthy subjects; Days 27+, n = 46): 0 n (%)
White blood cell count decreased (healthy subjects; Days 27+, n = 46): 0 n (%)
discontinuation rate (healthy subjects): 4%

half-life ([1]; human, in vivo, read-out: half-life (converted)): ~16.7 days
half-life [1]: approximately 400 hours
period of accumulation to steady state [1]: about 10 weeks
terminal half-life relative to etrasimod ([1]; longer than etrasimod): about 20 times
time to therapeutic steady state ([2]; 0.4 mg QD administration): 14 days
increase of steady-state AUC on day 13 compared with day 1 [2]: 10 fold
increase of steady-state Cmax on day 13 compared with day 1 [2]: 10 fold
Structure (SMILES): CCCCCCCOc1ccc(CCC(N)(CO)CO)cc1C(F)(F)F [amiselimod]
reduction in lymphocyte counts after discontinuation ([2]; after amiselimod discontinuation): maintained
Constipation (healthy subjects; Days 1-13, n = 95): 8 (8) n (%)
Dizziness (healthy subjects; Days 1-13, n = 95): 5 (5) n (%)
Headache (healthy subjects; Days 1-13, n = 95): 4 (4) n (%)
Number of subjects with an adverse event (healthy subjects; Days 1-13, n = 95): 55 (58) n (%)
Upper respiratory tract infection (healthy subjects; Days 1-13, n = 95): 1 (1) n (%)
White blood cell count decreased (healthy subjects; Days 1-13, n = 95): 18 (19) n (%)
Constipation (healthy subjects; Days 14+, n = 92): 6 (7) n (%)
Dizziness (healthy subjects; Days 14+, n = 92): 6 (7) n (%)
Headache (healthy subjects; Days 14+, n = 92): 11 (12) n (%)
Number of subjects with an adverse event (healthy subjects; Days 14+, n = 92): 57 (62) n (%)
Upper respiratory tract infection (healthy subjects; Days 14+, n = 92): 6 (7) n (%)
White blood cell count decreased (healthy subjects; Days 14+, n = 92): 13 (14) n (%)
amiselimod-related serious AE of atrial fibrillation (healthy subjects; day 26, after amiselimod 1.6 mg for 3 of the preceding 4 days): One subject
mean absolute lymphocyte count, nadir (healthy subjects; day 27): 0.424 thou/μL
changes to vital signs, physical examinations, and ECG parameters (healthy subjects; in vivo): within normal limits
tolerability (healthy subjects; multiple, upwardly titrated doses, healthy subjects): generally well tolerated
mean absolute lymphocyte count (healthy subjects; predose): 1.681 thou/μL
discontinuation rate (healthy subjects): 8%
negative chronotropic activity (heart rate): lack of negative chronotropic activity
number of peripheral blood lymphocytes (PBLs) [3]: significantly reduced
colitis [4]: reduced colitis
effect on colitis compared with murine anti-TNF-α antibody [4]: comparable to that of a murine anti-tumor necrosis factor-α (TNF-α) antibody
number of peripheral blood lymphocytes (PBLs) [5]: significantly reduced
number of peripheral blood lymphocytes (PBLs) [6]: significantly reduced

Structure (SMILES): O=C(O)C[C@H]1CCc2c1[nH]c1ccc(OCc3ccc(C4CCCC4)c(C(F)(F)F)c3)cc21 [etrasimod]
half-life [7]: 0.708 to 0.833 days
